Results on 25 compounds are retold here after patent US20070213339A1 (Bayer Pharmaceuticals Corporation, priority 2004, published 2007).

The subject of this test is Colo205 human colon carcinoma cell line. Briefly: In vitro tumor cell proliferation assay (MTS, CellTiter 96 Aqueous One Solution). In kind it is cell-based. The conditions noted are these: COLO 205, Colo205 cells, 72 hours compound exposure, MTS absorbance at 490 nm, read-out: IC50 (concentration of test compound required to inhibit proliferation of 50% of the cells). The gist of the method: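 Proliferation measured as MTS tetrazolium reduction (490 nm) after 72 h compound exposure at 37 °C. Cells plated at 2000 per well in serum-supplemented RPMI-1640; duplicate 5-point dilutions topping out at 10-20 μM. Percent inhibition versus untreated and cell-free wells, IC50 derived by linear regression.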
As to `O=C(O)c1cn(-c2ccc(CN3CCCC3)cc2)c2c(OC(F)(F)Cl)c(N3CCN(c4ccccc4)CC3)c(F)cc2c1=O` [Example 152, 8-[chloro(difluoro)methoxy]-6-fluoro-4-oxo-7-(4-phenylpiperazin-1-yl)-1-[4-(pyrrolidin-1-ylmethyl)phenyl]-1,4-dihydroquinoline-3-carboxylic acid], the IC50 is below 500 nM.

For `CN(C)Cc1ccc(-n2cc(C(=O)O)c(=O)c3cc(F)c(N4CCN(c5ccccn5)CC4)c(OC(F)(F)Cl)c32)cc1` [Example 154, 8-[chloro(difluoro)methoxy]-1-{4-[(dimethylamino)methyl]phenyl}-6-fluoro-4-oxo-7-(4-pyridin-2-ylpiperazin-1-yl)-1,4-dihydroquinoline-3-carboxylic acid], the IC50 is below 500 nM.

As to `CN(C)Cc1ccc(-n2cc(C(=O)O)c(=O)c3cc(F)c(N4CCN(c5ccc(F)cc5)CC4)c(OC(F)(F)Cl)c32)cc1` [Example 155, 8-[chloro(difluoro)methoxy]-1-{4-[(dimethylamino)methyl]phenyl}-6-fluoro-7-[4-(4-fluorophenyl)piperazin-1-yl]-4-oxo-1,4-dihydroquinoline-3-carboxylic acid], the IC50 is below 500 nM.

As to `CN(C)Cc1ccc(-n2cc(C(=O)O)c(=O)c3cc(F)c(N4CCN(c5ccc(Cl)cc5)CC4)c(OC(F)(F)Cl)c32)cc1` [Example 156, 8-[chloro(difluoro)methoxy]-7-[4-(4-chlorophenyl)piperazin-1-yl]-1-{4-[(dimethylamino)methyl]phenyl}-6-fluoro-4-oxo-1,4-dihydroquinoline-3-carboxylic acid], the IC50 is below 500 nM.

In the case of `CN(C)Cc1ccc(-n2cc(C(=O)O)c(=O)c3cc(F)c(N4CCN(c5ncccn5)CC4)c(OC(F)(F)Cl)c32)cc1` [Example 157, 8-[chloro(difluoro)methoxy]-1-{4-[(dimethylamino)methyl]phenyl}-6-fluoro-4-oxo-7-(4-pyrimidin-2-ylpiperazin-1-yl)-1,4-dihydroquinoline-3-carboxylic acid], the IC50 lay within 500 to 2000 nM.

For `CN(C)Cc1ccc(-n2cc(C(=O)O)c(=O)c3cc(F)c(N4CCN(c5ncccc5C#N)CC4)c(OC(F)(F)Cl)c32)cc1` [Example 158, 8-[chloro(difluoro)methoxy]-7-[4-(3-cyanopyridin-2-yl)piperazin-1-yl]-1-{4-[(dimethylamino)methyl]phenyl}-6-fluoro-4-oxo-1,4-dihydroquinoline-3-carboxylic acid], the IC50 is below 500 nM.

As to `CCN(CC)Cc1ccc(-n2cc(C(=O)O)c(=O)c3cc(F)c(N4CCN(c5ccccn5)CC4)c(OC(F)(F)Cl)c32)cc1` [Example 159, 8-[chloro(difluoro)methoxy]-1-{4-[(diethylamino)methyl]phenyl}-6-fluoro-4-oxo-7-(4-pyridin-2-ylpiperazin-1-yl)-1,4-dihydroquinoline-3-carboxylic acid], the IC50 is below 500 nM.

Regarding `CCN(CC)Cc1ccc(-n2cc(C(=O)O)c(=O)c3cc(F)c(N4CCN(c5ncccn5)CC4)c(OC(F)(F)Cl)c32)cc1` [Example 160], the IC50 lay within 500 to 2000 nM.

In the case of `CCN(CC)Cc1ccc(-n2cc(C(=O)O)c(=O)c3cc(F)c(N4CCN(c5ncccc5C#N)CC4)c(OC(F)(F)Cl)c32)cc1` [Example 161, 8-[chloro(difluoro)methoxy]-7-[4-(3-cyanopyridin-2-yl)piperazin-1-yl]-1-{4-[(diethylamino)methyl]phenyl}-6-fluoro-4-oxo-1,4-dihydroquinoline-3-carboxylic acid], the IC50 was below 500 nM.

As to `CCN(CC)Cc1ccc(-n2cc(C(=O)O)c(=O)c3cc(F)c(N4CCN(c5ccccc5C#N)CC4)c(OC(F)(F)Cl)c32)cc1` [Example 162, 8-[chloro(difluoro)methoxy]-7-[4-(2-cyanophenyl)piperazin-1-yl]-1-{4-[(diethylamino)methyl]phenyl}-6-fluoro-4-oxo-1,4-dihydroquinoline-3-carboxylic acid], the IC50 is below 500 nM.

In the case of `CCN(CC)Cc1ccc(-n2cc(C(=O)O)c(=O)c3cc(F)c(N4CCN(c5ccc(F)cc5)CC4)c(OC(F)(F)Cl)c32)cc1` [Example 163, 8-[chloro(difluoro)methoxy]-1-{4-[(diethylamino)methyl]phenyl}-6-fluoro-7-[4-(4-fluorophenyl)piperazin-1-yl]-4-oxo-1,4-dihydroquinoline-3-carboxylic acid], the IC50 is below 500 nM.

In the case of `CCN(CC)Cc1ccc(-n2cc(C(=O)O)c(=O)c3cc(F)c(N4CCN(c5ccc(Cl)cc5)CC4)c(OC(F)(F)Cl)c32)cc1` [Example 164, 8-[chloro(difluoro)methoxy]-7-[4-(4-chlorophenyl)piperazin-1-yl]-1-{4-[(diethylamino)methyl]phenyl}-6-fluoro-4-oxo-1,4-dihydroquinoline-3-carboxylic acid], the IC50 is below 500 nM.

Regarding `CCN(C)Cc1ccc(-n2cc(C(=O)O)c(=O)c3cc(F)c(N4CCN(c5ncccn5)CC4)c(OC(F)(F)Cl)c32)cc1` [Example 165, 8-[chloro(difluoro)methoxy]-1-(4-{[ethyl(methyl)amino]methyl}phenyl)-6-fluoro-4-oxo-7-(4-pyrimidin-2-ylpiperazin-1-yl)-1,4-dihydroquinoline-3-carboxylic acid], the IC50 is below 500 nM.

As to `CCN(C)Cc1ccc(-n2cc(C(=O)O)c(=O)c3cc(F)c(N4CCN(c5ncccc5C#N)CC4)c(OC(F)(F)Cl)c32)cc1` [Example 166, 8-[chloro(difluoro)methoxy]-7-[4-(3-cyanopyridin-2-yl)piperazin-1-yl]-1-(4-{[ethyl(methyl)amino]methyl}phenyl)-6-fluoro-4-oxo-1,4-dihydroquinoline-3-carboxylic acid], the IC50 is below 500 nM.

As for `CCN(C)Cc1ccc(-n2cc(C(=O)O)c(=O)c3cc(F)c(N4CCN(c5ccc(F)cc5)CC4)c(OC(F)(F)Cl)c32)cc1` [Example 167, 8-[chloro(difluoro)methoxy]-1-(4-{[ethyl(methyl)amino]methyl}phenyl)-6-fluoro-7-[4-(4-fluorophenyl)piperazin-1-yl]-4-oxo-1,4-dihydroquinoline-3-carboxylic acid], the IC50 is below 500 nM.

Turning to `CCN(C)Cc1ccc(-n2cc(C(=O)O)c(=O)c3cc(F)c(N4CCN(c5ccc(Cl)cc5)CC4)c(OC(F)(F)Cl)c32)cc1` [Example 168, 8-[chloro(difluoro)methoxy]-7-[4-(4-chlorophenyl)piperazin-1-yl]-1-(4-{[ethyl(methyl)amino]methyl}phenyl)-6-fluoro-4-oxo-1,4-dihydroquinoline-3-carboxylic acid], the IC50 is below 500 nM.

`N#Cc1c(N2CCN(c3ccccn3)CC2)c(F)cc2c(=O)c(C(=O)O)cn(-c3ccc(CN4CCCC4)cc3)c12` [Example 169, 8-cyano-6-fluoro-4-oxo-7-(4-pyridin-2-ylpiperazin-1-yl)-1-[4-(pyrrolidin-1-ylmethyl)phenyl]-1,4-dihydroquinoline-3-carboxylic acid]: the IC50 fell in the range of 500 to 2000 nM.

As to `O=C(O)c1cn(-c2ccc(CNCC3CC3)cc2)c2c(Cl)c(N3CCN(c4ccccn4)CC3)c(F)cc2c1=O` [Example 170, 8-chloro-1-(4-{[(cyclopropylmethyl)amino]methyl}phenyl)6-fluoro-4-oxo-7-(4-pyridin-2-ylpiperazin-1-yl)-1,4-dihydroquinoline-3-carboxylic acid], the IC50 is below 500 nM.

As to `O=C(O)c1cn(-c2ccc(CNC3CCCCC3)cc2)c2c(Cl)c(N3CCN(c4ccccn4)CC3)c(F)cc2c1=O` [Example 171, 8-chloro-1-(4-cyclohexylaminomethyl-phenyl)-6-fluoro-4-oxo-7-(4-pyridin-2-yl-piperazin-1-yl)-1,4-dihydroquinoline-3-carboxylic acid], the IC50 was below 500 nM.

Consider `O=C(O)c1cn(-c2ccc(CNC3CCCC3Cl)cc2)c2c(Cl)c(N3CCN(c4ccccn4)CC3)c(F)cc2c1=O` (stereo not shown) [Example 173, 8-chloro-1-{4-[(2-chloro-cyclopentylamino)-methyl]-phenyl}-6-fluoro-4-oxo-7-(4-pyridin-2-yl-piperazine-1-yl)-1,4-dihydro-quinoline-3-carboxylic acid], for which the IC50 is 500 to 2000 nM.

In the case of `CC(C)N(Cc1ccc(-n2cc(C(=O)O)c(=O)c3cc(F)c(N4CCN(c5ccccn5)CC4)c(Cl)c32)cc1)C1CCCCC1` [Example 174, 8-chloro-1-{4-[(2-cyclohexyl-isopropyl-amino)-methyl]-phenyl}-6-fluoro-4-oxo-7-(4-pyridin-2-yl-piperazine-1-yl)-1,4-dihydro-quinoline-3-carboxylic acid], the IC50 is below 500 nM.

Consider `Cc1cccc(N2CCN(c3c(F)cc4c(=O)c(C(=O)O)cn(-c5ccc(CN6CCCC6)cc5F)c4c3Cl)CC2)n1` [Example 175, 8-chloro-6-fluoro-1-(2-fluoro-4-pyrrolidin-1-ylmethyl-phenyl)-7-[4-(6-methylpyridine-2-yl)-piperazine-1-yl]-4-oxo-1,4-dihydroquinoline-3-carboxylic acid], for which the IC50 is below 500 nM.

Regarding `COc1cc(CN2CCCC2)ccc1-n1cc(C(=O)O)c(=O)c2cc(F)c(N3CCN(c4ccc(F)cc4)CC3)c(Cl)c21` [Example 176, 8-chloro-6-fluoro-7-[4-(4-fluorophenyl)-piperazine-1-yl]-1-(2-methoxy-4-pyrrolidin-1-ylmethyl-phenyl)-4-oxo-1,4-dihydroquinoline-3-carboxylic acid], the IC50 was below 500 nM.

As to `COc1cc(CN2CCCCC2)ccc1-n1cc(C(=O)O)c(=O)c2cc(F)c(N3CCN(c4ccc(F)cc4)CC3)c(Cl)c21` [Example 177, 8-chloro-6-fluoro-7-[4-(4-fluorophenyl)-piperazine-1-yl]-1-(2-methoxy-4-piperidine-1-ylmethyl-phenyl)-4-oxo-1,4-dihydroquinoline-3-carboxylic acid], the IC50 is below 500 nM.

Turning to `COc1cc(CNC2CCC2)ccc1-n1cc(C(=O)O)c(=O)c2cc(F)c(N3CCN(c4ccc(F)cc4)CC3)c(Cl)c21` [Example 178, 8-chloro-1-(4-cyclobutylaminomethyl-2-methoxyphenyl)-6-fluoro-7-[4-(4-fluorophenyl)-piperazine-1-yl]-4-oxo-1,4-dihydroquinoline-3-carboxylic acid], the IC50 is below 500 nM.
